Results taken from patent US20220296623A1, “REDUCED NICOTINAMIDERIBOSIDES FOR TREATING OR PREVENTING KIDNEY DISEASE” (SOCIETE DES PRODUITS NESTLE S.A., priority 2019, published 2022).
“Also recorded” adds a separate entry of the source.

Legend:
[1] = tested on: 3T3 fibroblasts; assay: NAD+ levels in 3T3 fibroblasts after NRH treatment; format: cell-based
Procedure: (§1) The ability of NRH to potently increase NAD+ was tested as well in other cell type models.

[2] = tested on: NAD+ levels in liver, muscle and kidney; assay: Tissue NAD+ levels after intraperitoneal injection of NR or NRH; format: in vivo, mice; conditions: IP 500 mg/kg, after 1 h
Procedure: The above results prompted us to test whether NRH could act as an effective NAD+ precursor in vivo. For this, we first intraperitoneally (IP) injected mice with either NR or NRH (500 mg/kg).

[3] = biological target: NAMPT (Mus musculus, UniProt Q99KQ4); assay: NRH action in presence of NAMPT inhibitor FK866; format: cell-based; conditions: FK866, a NAMPT inhibitor
[4] = tested on: INS1-cells; assay: NAD+ levels in INS1-cells after NRH treatment; format: cell-based
Procedure: as §1

[5] = Stability of NRH or NR spiked in isolated mouse plasma; format: in vitro ADME
Text: Levels of NRH and other NAD-related metabolites in biological samples were obtained by using a cold liquid-liquid extraction using a mixture of methanol:water:chloroform in 5:3:5 (v/v), from which the polar phase was recovered for hydrophilic interaction ultra-high performance liquid chromatography mass spectrometry (UHPLC-MS) analysis. The UHPLC consisted of a binary pump, a cooled autosampler, and a column oven (DIONEX Ultimate 3000 UHPLC+ Focused, Thermo Scientific), connected to a triple quadrupole spectrometer (TSQ Vantage, Thermo Scientific) equipped with a heated electrospray ionisation (H-ESI) source. Of each sample, 2 μL were injected into the analytical column (2.1 mm×150 mm, 5 μm pore size, 200 Å HILICON iHILIC®-Fusion(P)), guarded by a pre-column (2.1 mm×20 mm, 200 Å HILICON iHILIC®-Fusion(P) Guard Kit) operating at 35° C. The mobile phase (10 mM ammonium acetate at pH 9, A, and acetonitrile, B) was pumped at 0.25 mL/min flow rate over a linear gradient of decreasing organic solvent (0.5-16 min, 90-25% B), followed by re-equilibration for a total run time of 30 min. The MS operated in positive mode at 3500 V with multiple reaction monitoring (MRM). The software Xcalibur v4.1.31.9 (Thermo Scientific) was used for instrument control, data acquisition and processing. Retention time and mass detection was confirmed by authentic standards.
(§2) NR degradation to NAM has been proposed as a limitation for its pharmacological efficacy. To evaluate whether NRH was also susceptible to degradation to NAM, we spiked NRH or NR in isolated mouse plasma. […] We also tested the stability of NRH in other matrixes.

[6] = tested on: NMNAT; assay: NRH-induced NAD+ synthesis under NMNAT inhibition with gallotannin; format: cell-based
Text: As a follow-up step, NMNAT enzymes could catalyze the transition from NMNH to NADH.

[7] = Stability in FBS supplemented media; format: in vitro ADME
Text: as §2

[8] = tested on: equilibrative nucleoside transporters (ENTs); assay: NRH action as NAD+ precursor under ENT blockage with NBTI; format: cell-based; conditions: in the presence of S-(4-nitrobenzyl)-6-thioinosine (NBTI)
Text: In order to understand the exact path by which NRH synthesizes NAD+, we initially evaluated whether NRH, could be transported into the cell by equilibrative nucleoside transporters (ENTs).

[9] = biological target: T1, adenosine kinase (AK) (Mus musculus, UniProt P55264); assay: NRH-induced NAD+ synthesis under adenosine kinase inhibition (5-IT, ABT-702); format: cell-based
T1 construct: endogenous in cells; host or cells: AML12 cells
Procedure: AML12 cells were treated with an adenosine kinase inhibitor (5-IT; […]) for 1 hour prior to NRH treatment at the doses indicated. Then, 1 hour later, acidic extracts were obtained to measure NAD^+ levels. All values in the figure are expressed as mean +/−SEM of 3 independent experiments. * indicates statistical difference at p<0.05 vs. the respective vehicle treated group.
Considering the molecular structure of NRH, we reasoned that an alternative nucleoside kinase could be responsible for the phosphorylation of NRH. Confirming this expectation, the adenosine kinase (AK) inhibitor 5-iodotubercidin (5-IT) fully ablated the action of NRH. […] Metabolomic analyses further confirmed that upon inhibition of AK, the generation of NMNH, NADH and NAD+ was fully blunted, even if NRH was effectively entering the cell.

T1 sequence (P55264 whole entry): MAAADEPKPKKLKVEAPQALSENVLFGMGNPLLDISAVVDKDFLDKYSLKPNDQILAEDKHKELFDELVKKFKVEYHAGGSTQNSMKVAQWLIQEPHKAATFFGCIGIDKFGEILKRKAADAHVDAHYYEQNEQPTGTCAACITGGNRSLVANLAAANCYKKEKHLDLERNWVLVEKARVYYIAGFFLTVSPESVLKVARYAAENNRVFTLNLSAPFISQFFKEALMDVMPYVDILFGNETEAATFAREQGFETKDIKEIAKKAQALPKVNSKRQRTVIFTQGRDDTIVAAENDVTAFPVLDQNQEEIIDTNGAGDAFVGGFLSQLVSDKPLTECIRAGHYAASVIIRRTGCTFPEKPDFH
Sequence of NAMPT (Q99KQ4 whole entry): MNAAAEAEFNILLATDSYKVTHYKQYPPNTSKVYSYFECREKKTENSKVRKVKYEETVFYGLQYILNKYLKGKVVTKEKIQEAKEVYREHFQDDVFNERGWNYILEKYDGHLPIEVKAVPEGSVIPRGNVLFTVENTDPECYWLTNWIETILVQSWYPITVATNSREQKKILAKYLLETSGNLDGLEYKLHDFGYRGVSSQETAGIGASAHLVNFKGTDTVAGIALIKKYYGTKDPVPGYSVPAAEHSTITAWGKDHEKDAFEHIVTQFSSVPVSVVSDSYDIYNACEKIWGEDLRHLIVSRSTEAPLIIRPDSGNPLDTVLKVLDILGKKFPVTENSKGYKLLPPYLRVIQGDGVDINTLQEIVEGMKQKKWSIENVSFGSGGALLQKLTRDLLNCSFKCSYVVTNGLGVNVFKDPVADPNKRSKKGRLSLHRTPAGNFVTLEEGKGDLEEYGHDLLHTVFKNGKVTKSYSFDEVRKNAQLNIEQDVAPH

SMILES: NC(=O)C1=CN([C@@H]2O[C@H](CO)[C@@H](O)[C@H]2O)C=CC1 [NRH, dihydro-1-beta-D-ribofuranosyl-3-pyridinecarboxamide]
- NAD+ levels [1]: highly elevated NAD+ levels
- NAD+ levels in kidney [2]: increased NAD+ levels
- NAD+ levels in liver [2]: increased NAD+ levels
- NAD+ levels in muscle [2]: increased NAD+ levels
- dependence of NRH action on NAMPT [3]: NAMPT-independent
- NAD+ levels [4]: highly elevated NAD+ levels
- NR production on incubation in isolated plasma [5]: did not lead to NR production
- NAD+ synthesis after NRH treatment in presence of gallotannin ([6]; NRH at maximal doses (0.5 mM)): largely compromised NAD+ synthesis; also recorded: part of the NRH action remained
- NRH action in presence of gallotannin ([6]; NRH at submaximal doses): totally blocked by gallotannin
- degradation to NAM in FBS supplemented media [7]: did not degrade to NAM
- capacity as extracellular NAD+ precursor under ENT blockage [8]: largely lost its capacity as an extracellular NAD+ precursor; also recorded: a substantial action of NRH remained
- formation of NR and NMN after NRH treatment with 5-IT ([9]; 5-IT treatment): prevented the formation of NR and NMN
- action of NRH on NAD+ in presence of AK inhibitor 5-iodotubercidin (5-IT) ([9]; AML12 cells, 5-IT 10 mM for 1 hour prior to NRH, NAD+ 1 hour later): fully ablated; also recorded: adenosine kinase dependent path
- generation of NMNH, NADH and NAD+ upon inhibition of AK ([9]; metabolomic analyses): fully blunted
- NRH-mediated NAD+ synthesis in presence of AK inhibitor ABT-702 ([9]; second, structurally different AK inhibitor): role of AK in NRH-mediated NAD+ synthesis was confirmed
